Legend:
rats dosed cholic acid = assay: Lowering effect on bile acid concentrations in portal vein blood in rats dosed cholic acid; format: in vivo, rat
Experimental: In the present Test Example, a lowering effect on bile acid concentrations in portal vein blood in rats dosed cholic acid was evaluated according to the method described in Jpn. Pharmacol. Ther., Vol. 24 Supplement, 1996, 103(S-577)-110(S-584).
That is, SD (IGS) strain male rats at 7 to 9 weeks of age were fasted one day before the administration date. […] The blood was collected from the portal vein 2 hours after the forced oral administration, and a total bile acid value in serum was measured to examine the effect of the test compound (n=6). As a control, another group (n=6) merely received cholic acid (200 mg/kg), to which the same procedure was applied. The cholic acid value was measured using the commercially available kit (brand name: Total Bile Acid-Test Wako, supplied form Wako Pure Chemical Industries). Defining the value in the control group to which no test compound had been administered as being 100%, a reduction rate (%) of the bile acid value when a certain amount of the test compound had been administered was calculated.

Caco-2 cell = assay: Gastrointestinal toxicity: cytotoxicity against Caco-2 cell (LDH activity); format: cell-based, human; settings: for CELL TOXICITY AGAINST Caco2 3 μM / CELL TOXICITY AGAINST Caco2 10 μM / CELL TOXICITY AGAINST Caco2 30 μM: 2 hours, LDH activity in medium relative to cell lysis agent = 100%
Experimental: That is, 10,000 cells/well of Caco-2 cells (purchased from ATCC) were seeded in a 96-well plate [MEM-E medium, 10% FBS (Fetal Bovine Serum), 1% NEAA (Non Essential Amino Acid) solution, supplied from Gibco]. After culturing for 48 hours, the test compound diluted with the medium was added to each well. After 2 hours, 50 μL of the medium was collected, and an LDH activity in the medium was measured using an LDH activity measurement kit (CytoTox96 Non-Radioactive Cytotoxicity Assay, supplied from Promega). Defining the LDH activity of the Caco-2 cells treated with a cell lysis agent as being 100%, the relative activity was calculated as a index of the cytotoxicity.

human IBAT = target: T1, human IBAT (Homo sapiens, UniProt Q12908); assay: In vitro assay using Cos 7 cells, transiently expressed human IBAT; format: cell-based; settings: [3H]-taurocholate 8 μM uptake, 37° C., 60 minutes
T1 sequence (Q12908 1-348): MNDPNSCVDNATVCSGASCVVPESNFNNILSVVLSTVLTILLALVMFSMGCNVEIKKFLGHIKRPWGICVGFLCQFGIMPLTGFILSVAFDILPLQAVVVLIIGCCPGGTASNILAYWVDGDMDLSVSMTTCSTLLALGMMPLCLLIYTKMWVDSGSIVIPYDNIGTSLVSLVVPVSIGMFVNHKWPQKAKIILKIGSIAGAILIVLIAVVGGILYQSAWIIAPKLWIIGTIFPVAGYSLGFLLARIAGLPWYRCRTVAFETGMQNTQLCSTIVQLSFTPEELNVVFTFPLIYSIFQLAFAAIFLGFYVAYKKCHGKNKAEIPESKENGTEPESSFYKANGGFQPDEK
Experimental: In the present Test Example, an in vitro assay of compounds using Cos 7 cells as to inhibitory activity on transiently expressed human IBAT or rat IBAT transporter was performed according to the method described in Am. J. Physiol., 274, G157-169.
That is, […] cells/well of Cos 7 cells were seeded in a 24-well plate, and after one day, the cells were transfected with 0.3 μg/well of cDNA of human IBAT or rat IBAT using FuGENE6 (supplied from Roche). After culturing for one day after the transfection, the cells were washed once with the assay buffer, i.e., Hanks buffer containing 25 mM glucose and 10 mM HEPES (pH 7.4). The assay buffer was then replaced with the assay buffer containing the test compound. [^3H]-Taurocholate at a final concentration of 8 μM was added thereto and incubated at 37° C. for 60 minutes so that [^3H]-taurocholate was taken into Cos 7 cells by the action of human IBAT or rat IBAT. The cells were washed twice with the assay buffer containing 1 mM taurocholate, and subsequently lysed with 0.2 M NaOH to stop the reaction. The cell lysate was added to 4 mL of liquid scintillation cocktail, which was then thoroughly vortexed. Then the radioactivity was measured using the liquid scintillation counter.

[1] = 0.1 mg/kg oral with cholic acid 200 mg/kg, portal vein serum total bile acid 2 hours after, control = 100%, surfactant HCO-60 (##)

| Compound | IC50 (human IBAT) | CELL TOXICITY AGAINST Caco2 3 μM (Caco-2 cell) | CELL TOXICITY AGAINST Caco2 10 μM (Caco-2 cell) | CELL TOXICITY AGAINST Caco2 30 μM (Caco-2 cell) | other results |
| --- | --- | --- | --- | --- | --- |
| CCCCC1(CCCC)CS(=O)(=O)c2ccc(N(C)C)cc2C(c2cccc(NC(=S)Nc3ccc(C[N+](C)(C)CCOCCO)cc3)c2)N1.[Br-] (racemic) [EXAMPLE 3475] |  |  |  |  | BILE ACID REDUCTION RATE (%) IN RAT MODEL WITH CHOLIC ACID LOADING (rats dosed cholic acid; [1]): 19% |
| CCCCCC1(CCCCC)CS(=O)(=O)c2ccc(N(C)C)cc2C(c2cccc(NC(=S)Nc3ccc(C[N+]45CCC(CC4)CC5)cc3)c2)N1.[Br-] (racemic) [EXAMPLE 5735] |  | <1% | <1% | <1% |  |
| CCCCCC1(CCCCC)CS(=O)(=O)c2ccc(N(C)C)cc2C(c2cccc(NC(=S)Nc3ccc(CC[N+](C)(C)Cc4ccccc4)cc3)c2)N1.[Br-] (racemic) [EXAMPLE 5856] |  | <1% | <1% | <1% |  |
| CCCCCC1(CCCCC)CS(=O)(=O)c2ccc(N(C)C)cc2C(c2cccc(NC(=S)Nc3ccc(CC[N+]45CCC(CC4)CC5)cc3)c2)N1.[Br-] (racemic) [EXAMPLE 5857] |  | <1% | <1% | <1% |  |
| CCCCC1(CCCC)CS(=O)(=O)c2ccc(N(C)C)cc2C(c2ccc(OCc3ccc(C[N+]45CCN(CC4)CC5)cc3)cc2)N1.[Cl-] (centres unmarked) [Comparative Example, 1-{4-[4-(3,3-dibutyl-7-dimethylamino-1,1-dioxo-2,3,4,5-tetrahydro-1,4-benzothiazepine-5-yl)phenoxymethyl]benzyl}-4-aza-1-azoniabicyclo[2.2.2]octane chloride, reference compound] |  |  |  |  | cytotoxicity to the Caco-2 cell (Caco-2 cell; LDH activity in medium after 2 hours): exhibited the cytotoxicity to the small intestine epithelial cell line at low concentrations |
| CCCCC1(CCCC)CS(=O)(=O)c2ccc(N(C)C)cc2C(c2cccc(NC(=S)NCCCC[N+](C)(C)Cc3ccccc3)c2)N1.[Br-] (centres unmarked) [EXAMPLE 801] |  |  |  |  | BILE ACID REDUCTION RATE (%) IN RAT MODEL WITH CHOLIC ACID LOADING (rats dosed cholic acid; 0.1 mg/kg oral, surfactant HCO-60 0.1%, cholic acid 200 mg/kg, portal vein blood 2 hours after administration): 33% |
| CCCCC1(CCCC)CS(=O)(=O)c2ccc(N(C)C)cc2C(c2cccc(NC(=S)Nc3ccc(C[N+]45CCN(CC4)CC5)cc3)c2)N1.[Br-] (centres unmarked) [EXAMPLE 3705] | 54 nM | <1% | <1% | <1% |  |
| CCCCC1(CCCC)CS(=O)(=O)c2ccc(N(C)C)cc2C(c2cccc(NC(=S)Nc3ccc(C[n+]4ccc(C)cc4)cc3)c2)N1.[Br-] (centres unmarked) [EXAMPLE 3709] | 49 nM | <1% | <1% | <1% |  |
| CCCCc1ccc[n+](Cc2ccc(NC(=S)Nc3cccc(C4NC(CCCC)(CCCC)CS(=O)(=O)c5ccc(N(C)C)cc54)c3)cc2)c1.[Br-] (centres unmarked) [EXAMPLE 3723] | 25 nM | <1% | <1% | <1% |  |
| CCCCC1(CCCC)CS(=O)(=O)c2ccc(N(C)C)cc2C(c2cccc(NC(=S)Nc3ccccc3C[N+]34CCC(CC3)CC4)c2)N1.[Br-] (centres unmarked) [EXAMPLE 4905] |  |  |  |  | BILE ACID REDUCTION RATE (%) IN RAT MODEL WITH CHOLIC ACID LOADING (rats dosed cholic acid; [1]): 28% |
| CCCCCC1(CCCCC)CS(=O)(=O)c2ccc(N(C)C)cc2C(c2cccc(NC(=S)Nc3ccc(C[N+](C)(C)Cc4ccccc4)cc3)c2)N1.[Br-] (centres unmarked) [EXAMPLE 5480] |  | <1% | <1% | <1% |  |
| CCCCC1(CCCC)CS(=O)(=O)c2ccc(N(C)C)cc2C(c2cccc(NC(=S)NCCC[N+]34CCC(CC3)CC4)c2)N1.[Br-] (centres unmarked) [Example 9, 1-(3-{3-[3-(3,3-dibutyl-7-dimethylamino-1,1-dioxo-2,3,4,5-tetrahydro-1,4-benzothiazepine-5-yl)phenyl]thioureido}propyl)-1-azoniabicyclo[2.2.2]octane bromide] |  |  |  |  | BILE ACID REDUCTION RATE (%) IN RAT MODEL WITH CHOLIC ACID LOADING (rats dosed cholic acid; 0.1 mg/kg oral, surfactant Tween 20 0.05%, cholic acid 200 mg/kg, portal vein blood 2 hours after administration): 13% |
| CCCCC1(CCCC)CS(=O)(=O)c2ccc(N(C)C)cc2C(c2ccc(NC(=S)Nc3ccc(C[N+](C)(C)Cc4ccccc4)cc3)cc2)N1.[Br-] (centres unmarked) [Example 5405, Benzyl-(4-{3-[4-(3,3-dibutyl-7-dimethylamino-1,1-dioxo-2,3,4,5-tetrahydro-1,4-benzothiazepine-5-yl)phenyl]thioureido}benzyl)dimethylammonium bromide] |  |  |  |  | BILE ACID REDUCTION RATE (%) IN RAT MODEL WITH CHOLIC ACID LOADING (rats dosed cholic acid; po, 0.1 mg/kg, 2 h): 16% |
| CCCCC1(CCCC)CS(=O)(=O)c2ccc(N(C)C)cc2C(c2ccc(NC(=S)Nc3cccc(C[N+]45CCC(CC4)CC5)c3)cc2)N1.[Br-] (centres unmarked) [Example 5406, 1-(3-{3-[4-(3,3-dibutyl-7-dimethylamino-1,1-dioxo-2,3,4,5-tetrahydro-1,4-benzothiazepine-5-yl)phenyl]thioureido}benzyl)-1-azoniabicyclo[2.2.2]octane bromide] |  |  |  |  | BILE ACID REDUCTION RATE (%) IN RAT MODEL WITH CHOLIC ACID LOADING (rats dosed cholic acid; po, 0.1 mg/kg, 2 h): 15% |

Further lines, with some results ahead:

| IC50 (human IBAT) | Compound | CELL TOXICITY AGAINST Caco2 3 μM (Caco-2 cell) | CELL TOXICITY AGAINST Caco2 10 μM (Caco-2 cell) | CELL TOXICITY AGAINST Caco2 30 μM (Caco-2 cell) | other results |
| --- | --- | --- | --- | --- | --- |
| 28 nM | CCCCC1(CCCC)CS(=O)(=O)c2ccc(N(C)C)cc2C(c2cccc(NC(=S)Nc3ccc(C[N+]45CCC(c6ccccc6)(CC4)CC5)cc3C)c2)N1.[Br-] (centres unmarked) [EXAMPLE P340] |  | <1% | <1% |  |
| 19 nM | CCCCC1(CCCC)CS(=O)(=O)c2ccc(N(C)C)cc2C(c2cccc(NC(=S)Nc3ccc(C[N+]45CCC(c6ccccc6)(CC4)CC5)cc3Cl)c2)N1.[Br-] (centres unmarked) [EXAMPLE P344] |  | <1% | <1% |  |
| 23 nM | CCCCC1(CCCC)CS(=O)(=O)c2ccc(N(C)C)cc2C(c2cccc(NC(=S)Nc3ccc(C[N+]45CCC(c6ccccc6)(CC4)CC5)c(Cl)c3)c2)N1.[Br-] (centres unmarked) [EXAMPLE P345] |  | <1% | <1% |  |
| 24 nM | CCCCC1(CCCC)CS(=O)(=O)c2ccc(N(C)C)cc2C(c2cccc(NC(=S)Nc3ccc(C[N+]45CCC(c6ccccc6)(CC4)CC5)c(Br)c3)c2)N1.[Br-] (centres unmarked) [EXAMPLE P347] |  | <1% | <1% |  |
| 22 nM | CCCCC1(CCCC)CS(=O)(=O)c2ccc(N(C)C)cc2C(c2cccc(NC(=S)Nc3ccc(C[N+]45CCC(c6ccccc6)(CC4)CC5)c(C(F)(F)F)c3)c2)N1.[Br-] (centres unmarked) [EXAMPLE P348] |  | <1% | <1% |  |
| 32 nM | CCCCC1(CCCC)CS(=O)(=O)c2ccc(N(C)C)cc2C(c2cccc(NC(=S)Nc3ccc(C[n+]4ccc(-c5ccccc5)cc4)c(C(F)(F)F)c3)c2)N1 (centres unmarked) [EXAMPLE P384] |  |  |  |  |
| 56 nM | CCCCC1(CCCC)CS(=O)(=O)c2ccc(N(C)C)cc2C(c2cccc(NC(=S)Nc3ccc(C[n+]4ccc(-c5ccccc5)cc4)c([N+](=O)[O-])c3)c2)N1 (centres unmarked) [EXAMPLE P385] |  |  |  |  |
| 60 nM | CCCCC1(CCCC)CS(=O)(=O)c2ccc(N(C)C)cc2C(c2cccc(NC(=S)Nc3c(C)cc(C[n+]4ccc(-c5ccccc5)cc4)cc3C)c2)N1 (centres unmarked) [EXAMPLE P386] |  |  |  |  |
| 28 nM | CCCCC1(CCCC)CS(=O)(=O)c2ccc(N(C)C)cc2C(c2cccc(NC(=S)Nc3ccc(C[N+]45CCC(c6ccccc6)(CC4)CC5)cc3F)c2)N1 (centres unmarked) [Example P316, 1-(4-{3-[3-(3,3-dibutyl-7-dimethylamino-1,1-dioxo-2,3,4,5-tetrahydro-1,4-benzothiazepine-5-yl)phenyl]thioureido}-3-fluorobenzyl)-4-phenyl-1-azoniabicyclo[2.2.2]octane bromide] |  |  |  |  |

Reference: patent publication US20120015925A1, “NOVEL BENZOTHIAZEPINE AND BENZOTHIEPINE COMPOUNDS” (ASAHI KASEI PHARMA CORPORATION, priority 2004, published 2012)
